No end group written: not given here.
How the values were obtained:
[1] = tested on: Rat bone marrow-derived stem cells (mesenchymal stem cells); assay: Evaluation of cell growth-promoting activity, WST-8 colorimetric method (Example 5); assay type: cell-based; conditions: WST-8 absorbance at 450 nm, peptide approximately 2 μM, bFGF 10 ng/mL; for OD450 at the start of cultivation: day 0; for OD450 after 4 days: day 4
Procedure: (§1) Experimental sections were set up that used the cell growth-promoting peptides obtained in Example 4 (samples 22 to 42) as a cell growth promoter and that used a commercially available bFGF as a cell growth promoter as a comparative example. For the control, a peptide-free section (the bFGF was also not added) was set up.
(§2) The details of the evaluation testing are provided below. Each synthesized sample peptide was dissolved in PBS (phosphate-buffered physiological saline) to prepare a stock solution with a peptide concentration of 1 mM.
(§3) Rat bone marrow-derived stem cells (mesenchymal stem cells) were used as the test cells. Specifically, the test stem cells were cultured by passage on Dulbecco's MEM medium (DMEM medium: Gibco product) containing 10% fetal bovine serum (FBS: Gibco product), 2 mM of L-glutamine, 50 unit/mL of penicillin, and 50 μg/mL of streptomycin. From the second passage to the fourth passage (passages 2 to 4) were used in this evaluation testing.
(§4) Thus, the test stem cells were preliminarily recovered by treatment with a 0.05% trypsin-0.53 mM EDTA solution; a test stem cell solution, prepared with the DMEM medium containing 10 ng/mL of bFGF to provide 1×10^4 cells/mL, was seeded to each well of a 96-well plate to provide a cell count of 1×10^3 per well; and pre-cultivation was carried out overnight. The amount of medium was brought to 100 μL per well for this.
(§5) The medium in each well was then exchanged for fresh medium to which a stock solution of a peptide selected from sample 22 to 42 had been added, so as to give a concentration of the peptide in each well of approximately 2 μM. For comparison, in some wells the medium in the well was exchanged for fresh medium to which a commercially available bFGF (product of PeproTech) had been added to give a concentration of 10 ng/mL (the bFGF experimental section in Table 6).
(§6) After the addition of the sample peptide or bFGF as indicated above, the 96-well plate was placed in a CO2 incubator and cultivation at quiescence was carried out at 37° C. under 5% CO2. Medium exchange was performed every other day. The exchange medium was the same as that used at the start of cultivation (i.e., the same sample peptide or bFGF was also added to the exchange medium as in the sample peptide addition section or bFGF addition section).
During this cultivation test, a “water-soluble tetrazolium salt (WST-8)” was added as a chromogenic reagent to some wells at the start of cultivation (day 0) and at four days after the start of cultivation (day 4). After incubation for 2 hours after the addition, the cell culture fluid to which the chromogenic reagent had been added was recovered. The extent of cell growth was evaluated by a colorimetric method in which, based on reduction of the tetrazolium salt, the absorbance (OD450) at a wavelength of 450 nm was measured.

[2] = tested on: Rat bone marrow-derived stem cells (mesenchymal stem cells); assay: Evaluation of cell growth-promoting activity, WST-8 colorimetric method (Example 2); assay type: cell-based; conditions: WST-8 absorbance at 450 nm, peptide approximately 2 μM, bFGF 10 ng/mL; for OD450 at the start of cultivation: day 0; for OD450 after 2 days: day 2; for OD450 after 4 days: day 4
Procedure: as §1, with “1” for “4”, “1” for “22”, “21)” for “42)”
as §2, §3, §4
as §5, with “1” for “22”, “21” for “42”, “3).” for “6).”
as §6
During this cultivation test, a “water-soluble tetrazolium salt (WST-8)” was added as a chromogenic reagent to some wells at the start of cultivation (day 0), at two days after the start of cultivation (day 2), and at four days after the start of cultivation (day 4). After incubation for 2 hours after the addition, the cell culture fluid to which the chromogenic reagent had been added was recovered. The extent of cell growth was evaluated by a colorimetric method in which, based on reduction of the tetrazolium salt, the absorbance (OD450) at a wavelength of 450 nm was measured.

Sequence | OD450 at the start of cultivation [1] | OD450 after 4 days [1] | OD450 at the start of cultivation [2] | OD450 after 2 days [2] | OD450 after 4 days [2]
AAWTARAGKKRTLRKNDRKKR (AAWTARAGKKRTLRKNDRKKR-NH2) [compound 31] | 0.051 | 0.401 | – | – | –
AAWTVRAGKKRTLRKNDRKKR (AAWTVRAGKKRTLRKNDRKKR-NH2) [compound 10] | – | – | 0.058 | 0.149 | 0.389
ALLLLAAWTARAGKKRTLRKNDRKKR (ALLLLAAWTARAGKKRTLRKNDRKKR-NH2) [compound 26] | 0.051 | 0.509 | – | – | –
ALLLLAAWTVRAGKKRTLRKNDRKKR (ALLLLAAWTVRAGKKRTLRKNDRKKR-NH2) [compound 5] | – | – | 0.058 | 0.189 | 0.483
AWTARAGKKRTLRKNDRKKR (AWTARAGKKRTLRKNDRKKR-NH2) [compound 32] | 0.051 | 0.433 | – | – | –
AWTVRAGKKRTLRKNDRKKR (AWTVRAGKKRTLRKNDRKKR-NH2) [compound 11] | – | – | 0.058 | 0.169 | 0.403
GLALLLLAAWTARAGKKRTLRKNDRKKR (GLALLLLAAWTARAGKKRTLRKNDRKKR-NH2) [compound 24] | 0.051 | 0.327 | – | – | –
LAAWTARAGKKRTLRKNDRKKR (LAAWTARAGKKRTLRKNDRKKR-NH2) [compound 30] | 0.051 | 0.413 | – | – | –
LAAWTVRAGKKRTLRKNDRKKR (LAAWTVRAGKKRTLRKNDRKKR-NH2) [compound 9] | – | – | 0.058 | 0.179 | 0.398
LALLLLAAWTARAGKKRTLRKNDRKKR (LALLLLAAWTARAGKKRTLRKNDRKKR-NH2) [compound 25] | 0.051 | 0.319 | – | – | –
LALLLLAAWTVRAGKKRTLRKNDRKKR (LALLLLAAWTVRAGKKRTLRKNDRKKR-NH2) [compound 4] | – | – | 0.058 | 0.136 | 0.304
LLAAWTARAGKKRTLRKNDRKKR (LLAAWTARAGKKRTLRKNDRKKR-NH2) [compound 29] | 0.051 | 0.434 | – | – | –
LLAAWTVRAGKKRTLRKNDRKKR (LLAAWTVRAGKKRTLRKNDRKKR-NH2) [compound 8] | – | – | 0.058 | 0.168 | 0.418
LLLAAWTARAGKKRTLRKNDRKKR (LLLAAWTARAGKKRTLRKNDRKKR-NH2) [compound 28] | 0.051 | 0.532 | – | – | –
LLLAAWTVRAGKKRTLRKNDRKKR (LLLAAWTVRAGKKRTLRKNDRKKR-NH2) [compound 7] | – | – | 0.058 | 0.176 | 0.499
LLLLAAWTARAGKKRTLRKNDRKKR (LLLLAAWTARAGKKRTLRKNDRKKR-NH2) [compound 27] | 0.051 | 0.511 | – | – | –
LLLLAAWTVRAGKKRTLRKNDRKKR (LLLLAAWTVRAGKKRTLRKNDRKKR-NH2) [compound 6] | – | – | 0.058 | 0.186 | 0.483
MLPGLALGKKRTLRKNDRKKR (MLPGLALGKKRTLRKNDRKKR-NH2) [compound 42] | 0.051 | 0.346 | – | – | –
MLPGLALLGKKRTLRKNDRKKR (MLPGLALLGKKRTLRKNDRKKR-NH2) [compound 41] | 0.051 | 0.311 | – | – | –

Sequence | OD450 at the start of cultivation [1] | OD450 after 4 days [1] | OD450 at the start of cultivation [2] | OD450 after 2 days [2] | OD450 after 4 days [2]
MLPGLALLLGKKRTLRKNDRKKR (MLPGLALLLGKKRTLRKNDRKKR-NH2) [compound 40] | 0.051 | 0.487 | – | – | –
MLPGLALLLLAAGKKRTLRKNDRKKR (MLPGLALLLLAAGKKRTLRKNDRKKR-NH2) [sample 37] | 0.051 | 0.571 | – | – | –
MLPGLALLLLAAWGKKRTLRKNDRKKR (MLPGLALLLLAAWGKKRTLRKNDRKKR-NH2) [compound 36] | 0.051 | 0.288 | – | – | –
MLPGLALLLLAAWTAGKKRTLRKNDRKKR (MLPGLALLLLAAWTAGKKRTLRKNDRKKR-NH2) [compound 34] | 0.051 | 0.243 | – | – | –
MLPGLALLLLAAWTARAGKKRTLRKNDRKKR (MLPGLALLLLAAWTARAGKKRTLRKNDRKKR-NH2) [sample 22] | 0.051 | 0.241 | – | – | –
MLPSLALGKKRTLRKNDRKKR (MLPSLALGKKRTLRKNDRKKR-NH2) [compound 21] | – | – | 0.058 | 0.155 | 0.332
MLPSLALLGKKRTLRKNDRKKR (MLPSLALLGKKRTLRKNDRKKR-NH2) [compound 20] | – | – | 0.058 | 0.158 | 0.320
MLPSLALLLGKKRTLRKNDRKKR (MLPSLALLLGKKRTLRKNDRKKR-NH2) [compound 19] | – | – | 0.058 | 0.163 | 0.478
MLPSLALLLLAAGKKRTLRKNDRKKR (MLPSLALLLLAAGKKRTLRKNDRKKR-NH2) [compound 16] | – | – | 0.058 | 0.172 | 0.525
MLPSLALLLLAAWGKKRTLRKNDRKKR (MLPSLALLLLAAWGKKRTLRKNDRKKR-NH2) [compound 15] | – | – | 0.058 | 0.133 | 0.276
MLPSLALLLLAAWTGKKRTLRKNDRKKR (MLPSLALLLLAAWTGKKRTLRKNDRKKR-NH2) [compound 14] | – | – | 0.058 | 0.132 | 0.293
MLPSLALLLLAAWTVGKKRTLRKNDRKKR (MLPSLALLLLAAWTVGKKRTLRKNDRKKR-NH2) [compound 13] | – | – | 0.058 | 0.123 | 0.232
MLPSLALLLLAAWTVRAGKKRTLRKNDRKKR (MLPSLALLLLAAWTVRAGKKRTLRKNDRKKR-NH2) [sample 1] | – | – | 0.058 | 0.132 | 0.243
MLPSLALLLLAGKKRTLRKNDRKKR (MLPSLALLLLAGKKRTLRKNDRKKR-NH2) [compound 17] | – | – | 0.058 | 0.176 | 0.468
MLPSLALLLLGKKRTLRKNDRKKR (MLPSLALLLLGKKRTLRKNDRKKR-NH2) [compound 18] | – | – | 0.058 | 0.184 | 0.505
PSLALLLLAAWTVRAGKKRTLRKNDRKKR (PSLALLLLAAWTVRAGKKRTLRKNDRKKR-NH2) [sample 2] | – | – | 0.058 | 0.136 | 0.297
SLALLLLAAWTVRAGKKRTLRKNDRKKR (SLALLLLAAWTVRAGKKRTLRKNDRKKR-NH2) [sample 3] | – | – | 0.058 | 0.139 | 0.293
WTVRAGKKRTLRKNDRKKR (WTVRAGKKRTLRKNDRKKR-NH2) [compound 12] | – | – | 0.058 | 0.181 | 0.388
